# ChEMBL document CHEMBL4813951 (Eur J Med Chem, 2021)
# Columns and labels:
# Histamine H4 receptor = Histamine H4 receptor (Homo sapiens, UniProt Q9H3N8)
# Histamine H2 receptor [1] = target: Histamine H2 receptor (Cavia porcellus, UniProt P47747); assay: Agonist activity at guinea pig right atrium histamine H2 receptor assessed as increase in heart rate incubated for 30 mins in presence of cimetidine; type: functional, tissue-based, Right cardiac atrium
# Histamine H3 receptor = Histamine H3 receptor (Homo sapiens, UniProt Q9Y5N1); assay: Displacement of [3H]UR-P129 from human histamine H3 receptor expressed in sf9 insect cell membranes co-expressing Galphai2/Gbeta1gamma2 incubated for 60 mins by microbeta scintillation counting method; set-up: species or system Membrane
# Histamine H3 receptor, sequence (Q9Y5N1 whole entry): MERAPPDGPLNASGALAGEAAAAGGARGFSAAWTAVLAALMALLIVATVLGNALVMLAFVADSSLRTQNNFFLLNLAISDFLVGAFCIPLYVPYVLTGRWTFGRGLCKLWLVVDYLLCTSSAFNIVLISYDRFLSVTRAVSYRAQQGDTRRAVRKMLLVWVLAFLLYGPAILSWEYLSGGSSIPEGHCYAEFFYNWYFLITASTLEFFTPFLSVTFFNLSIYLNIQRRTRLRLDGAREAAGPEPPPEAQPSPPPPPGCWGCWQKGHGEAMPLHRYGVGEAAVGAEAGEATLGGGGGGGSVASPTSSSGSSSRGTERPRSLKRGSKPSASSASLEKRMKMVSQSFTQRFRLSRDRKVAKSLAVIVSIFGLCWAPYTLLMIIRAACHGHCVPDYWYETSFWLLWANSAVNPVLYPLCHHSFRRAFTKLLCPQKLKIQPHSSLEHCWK
# [2] = target: Histamine H2 receptor (Cavia porcellus) (UniProt P47747); assay: Agonist activity at guinea pig right atrium histamine H2 receptor assessed as intrinsic activity incubated for 30 mins in presence of cimetidine relative to histamine; type: functional, tissue-based; conditions: Right cardiac atrium, filed as agonist
# Histamine H2 receptor (Cavia porcellus), sequence (P47747 whole entry): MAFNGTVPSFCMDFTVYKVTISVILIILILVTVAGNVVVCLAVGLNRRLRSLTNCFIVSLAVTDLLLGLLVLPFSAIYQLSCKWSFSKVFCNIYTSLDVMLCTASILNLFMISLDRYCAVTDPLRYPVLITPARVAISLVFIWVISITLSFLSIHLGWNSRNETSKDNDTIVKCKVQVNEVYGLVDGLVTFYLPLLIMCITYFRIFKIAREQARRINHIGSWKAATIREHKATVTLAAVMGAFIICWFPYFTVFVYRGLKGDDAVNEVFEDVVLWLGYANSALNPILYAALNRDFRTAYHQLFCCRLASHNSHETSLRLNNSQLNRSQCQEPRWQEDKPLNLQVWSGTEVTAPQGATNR
# Histamine H1 receptor = Histamine H1 receptor (Homo sapiens, UniProt P35367); assay: Displacement of [3H]mepyramine from human histamine H1 receptor expressed in sf9 insect cell membranes co-expressing RGS4 incubated for 60 mins by microbeta scintillation counting method; set-up: species or system Membrane
# Histamine H1 receptor, sequence (P35367 whole entry): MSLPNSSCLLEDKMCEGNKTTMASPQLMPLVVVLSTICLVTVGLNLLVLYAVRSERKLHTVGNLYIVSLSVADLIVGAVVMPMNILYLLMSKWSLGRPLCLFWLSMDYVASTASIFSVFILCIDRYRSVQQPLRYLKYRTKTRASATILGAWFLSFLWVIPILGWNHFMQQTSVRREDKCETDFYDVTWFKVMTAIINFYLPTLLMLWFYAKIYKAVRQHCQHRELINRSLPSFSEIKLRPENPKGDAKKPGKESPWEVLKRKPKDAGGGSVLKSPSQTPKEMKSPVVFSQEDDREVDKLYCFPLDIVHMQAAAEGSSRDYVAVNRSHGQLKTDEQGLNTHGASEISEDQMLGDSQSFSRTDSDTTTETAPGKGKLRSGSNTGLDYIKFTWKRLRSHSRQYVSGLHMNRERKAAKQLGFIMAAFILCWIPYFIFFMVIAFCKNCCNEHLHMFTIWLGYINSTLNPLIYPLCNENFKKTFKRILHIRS
# Histamine H2 receptor [3] = target: T1, Histamine H2 receptor (Homo sapiens, UniProt P25021); assay: Displacement of [3H]UR-DE257 from human histamine H2 receptor expressed in sf9 insect cell membranes co-expressing GSalphaS incubated for 60 mins by microbeta scintillation counting method; set-up: species or system Membrane
# T1 sequence (P25021 whole entry): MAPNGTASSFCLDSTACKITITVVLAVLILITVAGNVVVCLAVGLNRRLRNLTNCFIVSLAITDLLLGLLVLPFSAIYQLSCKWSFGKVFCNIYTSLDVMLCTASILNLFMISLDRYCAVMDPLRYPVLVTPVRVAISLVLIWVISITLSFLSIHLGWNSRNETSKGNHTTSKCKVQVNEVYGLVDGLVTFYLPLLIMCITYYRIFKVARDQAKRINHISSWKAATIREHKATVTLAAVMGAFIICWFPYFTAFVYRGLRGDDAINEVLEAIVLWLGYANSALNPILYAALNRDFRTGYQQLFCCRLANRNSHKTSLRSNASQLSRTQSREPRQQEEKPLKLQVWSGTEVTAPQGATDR
# D(3) dopamine receptor [4] = target: T2, D(3) dopamine receptor (Homo sapiens, UniProt P35462); assay: Agonist activity at […] expressed in HEK293T cells co-expressing ELucC by beta arrestin2 recruitment assay; type: functional, cell-based
# T2 sequence (P35462 whole entry): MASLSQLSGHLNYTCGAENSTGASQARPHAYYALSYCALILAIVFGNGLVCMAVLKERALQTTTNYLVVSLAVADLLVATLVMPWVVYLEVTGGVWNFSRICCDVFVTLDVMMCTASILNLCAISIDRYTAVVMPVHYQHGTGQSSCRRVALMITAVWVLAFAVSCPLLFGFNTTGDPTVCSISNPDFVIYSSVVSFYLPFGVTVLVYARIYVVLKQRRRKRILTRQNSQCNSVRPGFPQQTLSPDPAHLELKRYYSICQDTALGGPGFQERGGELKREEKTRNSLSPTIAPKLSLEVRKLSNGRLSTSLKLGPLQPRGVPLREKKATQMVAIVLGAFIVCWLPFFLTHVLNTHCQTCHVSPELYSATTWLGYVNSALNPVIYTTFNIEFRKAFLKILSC
# D(3) dopamine receptor [5] = target: T2, D(3) dopamine receptor; assay: Displacement of [3H]N-methylspiperone from human D3 receptor expressed in HEK293T cells co-expressing CRE-Luc incubated for 60 mins by microbeta scintillation counting method; type: cell-based
# Histamine H2 receptor [6] = target: T1, Histamine H2 receptor; assay: Agonist activity at human histamine receptor expressed in sf9 insect cell membranes co-exprssing GsalphaS incubated for 90 mins [35S]GTPgammaS binding based microbeta scintillation counting analysis; type: functional, Membrane
# Histamine H2 receptor [7] = target: T1, Histamine H2 receptor; assay: Agonist activity at human histamine H2 receptor expressed in HEK293T cells co-expressing ELucC by beta arrestin2 recruitment assay; type: functional, cell-based
# Histamine H2 receptor [8] = target: T1, Histamine H2 receptor; assay: Agonist activity at human histamine H2 receptor expressed in sf9 insect cell membranes co-exprssing GsalphaS assessed as intrinsic activity at >=30 uM incubated for 90 mins [35S]GTPgammaS binding based microbeta scintillation counting analysis relative to histamine; type: functional; conditions: Membrane, filed as agonist, dose microM >=30, time 90.0 min
# Histamine H4 receptor, sequence (Q9H3N8 whole entry): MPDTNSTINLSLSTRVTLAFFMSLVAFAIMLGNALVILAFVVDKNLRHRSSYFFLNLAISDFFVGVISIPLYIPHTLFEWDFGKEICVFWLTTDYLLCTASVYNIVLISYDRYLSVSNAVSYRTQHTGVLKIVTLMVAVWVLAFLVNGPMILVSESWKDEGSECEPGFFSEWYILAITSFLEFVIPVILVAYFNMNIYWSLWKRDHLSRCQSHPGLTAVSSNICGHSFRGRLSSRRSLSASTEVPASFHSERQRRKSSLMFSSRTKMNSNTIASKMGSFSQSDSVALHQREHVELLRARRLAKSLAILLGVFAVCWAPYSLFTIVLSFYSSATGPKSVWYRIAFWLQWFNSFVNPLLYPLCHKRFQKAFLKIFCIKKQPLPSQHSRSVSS
# Histamine H2 receptor (Cavia porcellus, UniProt P47747), sequence (P47747 whole entry): as the sequence (P47747 whole entry) above
Structure (SMILES),Ki (Histamine H4 receptor),EC50 (Histamine H2 receptor [1]),Ki (Histamine H3 receptor),Intrinsic activity [2],Ki (Histamine H1 receptor),Ki (Histamine H2 receptor [3]),EC50 (D(3) dopamine receptor [4]),Ki (D(3) dopamine receptor [5]),EC50 (Histamine H2 receptor [6]),EC50 (Histamine H2 receptor [7]),Intrinsic activity (Histamine H2 receptor [8])
Cc1nc(N)sc1CCCN/C(N)=N/C(=O)NC(C)c1ccc(Cl)cc1 (centres undefined),8.51 µM,0.0245 µM,17.8 µM,0.93,4.47 µM,0.0468 µM,,,,,
Cc1nc(N)sc1CCCN/C(N)=N/C(=O)NC[C@H](C)c1ccccc1,12 µM,0.0257 µM,17 µM,0.99,8.71 µM,0.1 µM,,,,,
Cc1nc(N)sc1CCCN/C(N)=N/C(=O)NC(c1ccccc1)C(F)(F)F (centres undefined),17.4 µM,0.0479 µM,31.6 µM,0.85,53.7 µM,0.229 µM,,,,,
Cc1nc(N)sc1CCCN/C(N)=N/C(=S)NC[C@H](C)c1ccccc1,44.7 µM,0.49 µM,69.2 µM,0.44,63.1 µM,1.15 µM,,,,,
Cc1nc(N)sc1CCCN/C(N)=N/C(=O)NC(C)c1ccc(OC(F)(F)F)cc1 (centres undefined),8.13 µM,0.724 µM,14.5 µM,0.61,21.9 µM,0.126 µM,,,,,
Cc1nc(N)sc1CCCN/C(N)=N/C(=O)NCC(C)CC1CCCCC1 (centres undefined),3.72 µM,,7.41 µM,,3.8 µM,0.0708 µM,0.302 µM,0.132 µM,0.0174 µM,0.302 µM,
Cc1nc(N)sc1CCCN/C(N)=N/C(=S)NC[C@@H](C)c1ccccc1,32.4 µM,0.148 µM,83.2 µM,0.66,52.5 µM,0.427 µM,,,,,
N/C(=N\C(=O)NCc1ccccc1)Nc1cccc(-c2csc(N)n2)c1,34.7 µM,,,,,,,,,,
Cc1nc(N)sc1CCCN/C(N)=N/C(=O)NC1CCCCC1,31.6 µM,,,,24.5 µM,0.17 µM,,,0.148 µM,0.389 µM,
Cc1nc(N)sc1CCCN/C(N)=N/C(=O)NC(C)c1ccc(Br)cc1 (centres undefined),8.13 µM,0.055 µM,12.9 µM,0.87,2.88 µM,0.0302 µM,,,,,
N/C(=N\C(=O)NCCc1ccccc1)Nc1cccc(-c2csc(N)n2)c1,30.2 µM,,,,,,,,,,
Cc1nc(N)sc1CCCN/C(N)=N/C(=O)NC[C@@H](C)c1ccccc1,13.5 µM,0.0129 µM,26.9 µM,0.98,9.55 µM,0.102 µM,,,,,
Cc1nc(N)sc1CCCN/C(N)=N/C(=O)NCC(c1ccccc1)c1ccccc1,4.9 µM,0.174 µM,10 µM,0.76,5.25 µM,0.0871 µM,,,,,
Cc1nc(N)sc1CCCN/C(N)=N/C(=S)N[C@@H](C)c1ccccc1,55 µM,0.224 µM,81.3 µM,0.65,77.6 µM,0.339 µM,,,,,
Cc1nc(N)sc1CCCN/C(N)=N/C(=O)NC(c1ccccc1)C(C)C (centres undefined),7.94 µM,0.0347 µM,19.1 µM,1.04,24.5 µM,0.0355 µM,,,,,
CCC(NC(=O)/N=C(\N)NCCCc1sc(N)nc1C)c1ccccc1 (centres undefined),11.2 µM,0.0107 µM,21.9 µM,0.93,12.6 µM,0.0631 µM,,,,,

Structure (SMILES),Ki (Histamine H4 receptor),EC50 (Histamine H2 receptor [1]),Ki (Histamine H3 receptor),Intrinsic activity [2],Ki (Histamine H1 receptor),Ki (Histamine H2 receptor [3]),EC50 (D(3) dopamine receptor [4]),Ki (D(3) dopamine receptor [5]),EC50 (Histamine H2 receptor [6]),EC50 (Histamine H2 receptor [7]),Intrinsic activity (Histamine H2 receptor [8])
Cc1nc(N)sc1CCCN/C(N)=N/C(=O)NC(C)c1cccs1 (centres undefined),30.2 µM,0.01 µM,58.9 µM,0.88,25.7 µM,0.0631 µM,,,,,
Cc1nc(N)sc1CCCN/C(N)=N/C(=O)Nc1ccccc1,22.4 µM,,,,,3.16 µM,,,0.525 µM,3.39 µM,0.59
CCCN[C@@H]1CCc2nc(N)sc2C1 [DEXPRAMIPEXOLE],,,,,,13.8 µM,,,8.51 µM,39.8 µM,
Cc1nc(N)sc1CCCN/C(N)=N/C(=O)N[C@@H](C)c1ccccc1,17.8 µM,0.0234 µM,33.1 µM,,21.4 µM,0.0513 µM,0.229 µM,0.0245 µM,,,
COc1ccc(C(C)NC(=O)/N=C(\N)NCCCc2sc(N)nc2C)cc1 (centres undefined),20 µM,0.038 µM,33.1 µM,0.91,5.89 µM,0.0372 µM,,,,,
Cc1ccc(C(C)NC(=O)/N=C(\N)NCCCc2sc(N)nc2C)cc1 (centres undefined),11.2 µM,0.0224 µM,26.3 µM,0.85,5.13 µM,0.0309 µM,,,,,
Cc1nc(N)sc1CCCN/C(N)=N/C(=O)NC(C)c1cccc(F)c1 (centres undefined),13.2 µM,0.0263 µM,38.9 µM,,7.76 µM,0.00204 µM,0.0724 µM,0.00871 µM,,0.0646 µM,
Cc1nc(N)sc1CCCN/C(N)=N/C(=O)NC(c1ccccc1)c1ccccc1,6.31 µM,0.0398 µM,9.12 µM,,15.8 µM,,,,,,
Cc1nc(N)sc1CCCN/C(N)=N/C(=O)NCC(C)CCCc1ccccc1 (centres undefined),0.776 µM,,2.29 µM,,7.08 µM,0.0603 µM,,,,2.51 µM,
Cc1nc(N)sc1CCCN/C(N)=N/C(=O)NC(C)c1ccccc1F (centres undefined),12.9 µM,0.0123 µM,30.9 µM,0.93,17 µM,0.0288 µM,,,,,
Cc1nc(N)sc1CCCN/C(N)=N/C(=S)NC(c1ccccc1)c1ccccc1,23.4 µM,0.0661 µM,43.7 µM,0.67,46.8 µM,0.603 µM,,,,,
Cc1nc(N)sc1CCCN/C(N)=N/C(=O)NC(C)c1ccc(F)cc1 (centres undefined),13.8 µM,0.0234 µM,25.7 µM,0.92,10.2 µM,0.0316 µM,,,,,
Cc1nc(N)sc1CCCN/C(N)=N/C(=O)NCc1ccco1,75.9 µM,0.0117 µM,74.1 µM,0.58,24 µM,0.0105 µM,,,,,
CCCNC(=O)/N=C(\N)NCCCc1sc(N)nc1C,87.1 µM,,44.7 µM,,28.8 µM,0.105 µM,,,0.178 µM,0.17 µM,0.79
Cc1nc(N)sc1CCCN/C(N)=N/C(=O)NCCc1ccccc1,14.8 µM,,,,,0.158 µM,,,0.0447 µM,0.166 µM,0.72
Cc1ccc(CC(C)CNC(=O)/N=C(\N)NCCCc2sc(N)nc2C)cc1 (centres undefined),3.63 µM,,3.24 µM,,1.66 µM,0.0724 µM,,,0.0603 µM,0.132 µM,
